{"source": "the NIST ThermoML archive (doi:10.1021/je050473r)", "conditions": "Liquid", "key": {"[1]": {"conditions": "303.15 K, Closed cell (Static) method"}, "[2]": {"conditions": "353.15 K, Closed cell (Static) method"}, "[3]": {"conditions": "373.1 K, Closed cell (Static) method"}, "[4]": {"conditions": "413.15 K, Closed cell (Static) method"}}, "note": "Numbers after ± are expanded uncertainties.", "data": [{"smiles": "ClCCCl", "note": "[1,2-dichloroethane]", "values": [{"measurement": "vapor or sublimation pressure", "setting": "[1]", "result": "13.28 ± 1", "unit": "kPa"}, {"measurement": "vapor or sublimation pressure", "setting": "[2]", "result": "90.9 ± 1", "unit": "kPa"}]}, {"smiles": "CC(C)CC(C)(C)C", "note": "[2,2,4-trimethylpentane]", "values": [{"measurement": "vapor or sublimation pressure", "setting": "[3]", "result": "103.49 ± 1.1", "unit": "kPa"}, {"measurement": "vapor or sublimation pressure", "setting": "[4]", "result": "282.8 ± 1.4", "unit": "kPa"}]}, {"smiles": "CCc1cccs1", "note": "[2-ethylthiophene]", "values": [{"measurement": "vapor or sublimation pressure", "setting": "[3]", "result": "33.26 ± 1", "unit": "kPa"}, {"measurement": "vapor or sublimation pressure", "setting": "[4]", "result": "111.4 ± 1.1", "unit": "kPa"}]}, {"smiles": "Cc1cccs1", "note": "[2-methylthiophene]", "values": [{"measurement": "vapor or sublimation pressure", "setting": "[3]", "result": "69.87 ± 1.1", "unit": "kPa"}, {"measurement": "vapor or sublimation pressure", "setting": "[4]", "result": "209.8 ± 1.2", "unit": "kPa"}]}, {"smiles": "Cl/C=C/Cl", "note": "[(E)-1,2-dichloroethene]", "values": [{"measurement": "vapor or sublimation pressure", "setting": "[1]", "result": "53.33 ± 1.1", "unit": "kPa"}, {"measurement": "vapor or sublimation pressure", "setting": "[2]", "result": "269.9 ± 1.3", "unit": "kPa"}]}, {"smiles": "N#CC1CC1", "note": "[cyclopropanecarbonitrile]", "values": [{"measurement": "vapor or sublimation pressure", "setting": "373.1 K", "result": "35.2 ± 1", "unit": "kPa"}, {"measurement": "vapor or sublimation pressure", "setting": "408.15 K", "result": "102.2 ± 1.2", "unit": "kPa"}]}, {"smiles": "C=CCCCCCC", "note": "[oct-1-ene]", "values": [{"measurement": "vapor or sublimation pressure", "setting": "[3]", "result": "53.82 ± 1.1", "unit": "kPa"}, {"measurement": "vapor or sublimation pressure", "setting": "[4]", "result": "165.9 ± 1.2", "unit": "kPa"}]}, {"smiles": "O", "note": "[water]", "values": [{"measurement": "vapor or sublimation pressure", "setting": "373.1 K", "result": "101.4 ± 1.3", "unit": "kPa"}, {"measurement": "vapor or sublimation pressure", "setting": "408.15 K", "result": "312.4 ± 2.1", "unit": "kPa"}]}]}
